# Results from patent publication US9834558B2, “Substituted bridged urea analogs as sirtuin modulators” (GLAXOSMITHKLINE LLC, priority 2013, dated 2017).
# Structures can show the parent of a compound that is named as a salt. Where two headings read alike, the source gives them in different places.
# Biological target: T1, SIRT1 (Homo sapiens, UniProt Q96EB6)
# T1 sequence (Q96EB6 1-747): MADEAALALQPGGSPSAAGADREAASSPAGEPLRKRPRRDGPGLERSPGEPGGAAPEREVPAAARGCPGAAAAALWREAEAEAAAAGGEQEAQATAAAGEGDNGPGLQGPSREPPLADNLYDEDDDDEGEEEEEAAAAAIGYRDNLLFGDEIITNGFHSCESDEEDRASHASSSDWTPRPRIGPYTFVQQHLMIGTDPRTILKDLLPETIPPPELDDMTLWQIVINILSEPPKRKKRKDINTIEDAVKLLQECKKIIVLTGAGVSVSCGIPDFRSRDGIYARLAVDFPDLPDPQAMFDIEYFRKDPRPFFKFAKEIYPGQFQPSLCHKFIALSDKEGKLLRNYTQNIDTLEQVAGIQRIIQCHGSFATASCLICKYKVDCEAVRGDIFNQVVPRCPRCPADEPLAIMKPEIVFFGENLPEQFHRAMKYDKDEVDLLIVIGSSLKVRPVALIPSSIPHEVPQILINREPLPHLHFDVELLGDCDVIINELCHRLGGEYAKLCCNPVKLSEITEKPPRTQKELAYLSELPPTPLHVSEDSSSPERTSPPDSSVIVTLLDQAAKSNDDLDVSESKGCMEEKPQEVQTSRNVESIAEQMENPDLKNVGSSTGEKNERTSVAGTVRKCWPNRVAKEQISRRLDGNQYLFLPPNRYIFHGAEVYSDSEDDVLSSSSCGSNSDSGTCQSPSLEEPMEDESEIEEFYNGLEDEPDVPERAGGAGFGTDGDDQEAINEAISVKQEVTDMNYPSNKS
# Assay: Trp mass spectrometry assay of SIRT1 activation
# Type: biochemical
# Details: for TRP Activity (EC1.5): EC1.5 = concentration that results in 150% activation of SIRT1
# Summary of the method: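 Activation read-out: mass-spec measurement of O-acetyl-ADP-ribose or deacetylated Trp peptide versus compound-free controls, giving EC1.5 and Percent Maximum Activation. Reactions ran 25 min at 25 °C, pH 7.5, with 120 μM βNAD+, 0.5 μM acetylated p53-derived peptide and 10 nM His-tagged SIRT1.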
# [1] = Trp peptide assay, maximum activity relative to control (100%), read-out: TRP MAX RESP (percent maximum fold activation)
# [2] = Trp mass spectrometry assay, EC1.5 = concentration of test compound that results in 150% activation of SIRT1
# [3] = Trp mass spectrometry assay, concentration of test compound giving 150% activation of SIRT1
# [4] = concentration giving 150% activation of SIRT1, Trp peptide substrate
# [5] = Trp peptide substrate, concentration giving 150% activation of SIRT1
smiles,measurement,setting,value
"O=C(Nc1ccncn1)N1c2nc(-c3ccnc(C(F)(F)F)c3)ccc2N2CCC[C@H]1C2 [(9S)-N-(pyrimidin-4-yl)-5-[2-(trifluoromethyl)pyridin-4-yl]-1,6,8-triazatricyclo[7.3.1.0 {2,7}]trideca-2(7),3,5-triene-8-carboxamide]",TRP Activity (EC1.5),Trp peptide assay,A (A (EC1.5<1 μM))
same,Emax,[1],> 150%
N#Cc1ccccc1-c1ccc2c(n1)N(C(=O)Nc1cccnc1)[C@H]1CCCN2C1 [Example 438],Tryp AVG EC1.5 (μM),[2],B (B (EC1.5 1-25 μM))
O=C(NCCc1cccnc1)N1c2nc(-c3cccc(C(F)(F)F)c3)ccc2N2CC[C@H]1C2 [Example 615],Tryp AVG EC1.5 (μM),[2],B (B (EC1.5 1-25 μM))
O=C(Nc1ccncn1)N1c2nc(N3CCCN(CC(F)(F)F)CC3)ccc2N2CCC[C@H]1C2 [Example 491],Tryp AVG EC1.5 (μM),[2],A (A (EC1.5<1 μM))
O=C(Nc1ccc(F)cn1)N1c2nc(N3CCCC(C(F)(F)F)C3)ccc2N2CCC[C@@H]1C2 (stereo partly shown) [Example 362],Tryp AVG EC1.5 (μM),[3],C (C (EC1.5>25 μM))
"O=C(Nc1ccccn1)N1c2nc(N3CC[C@H](C(F)(F)F)C3)ccc2N2CCC[C@H]1C2 [drawing 1225, (9S)-N-(pyridin-2-yl)-5-[(3S)-3-(trifluoromethyl)pyrrolidin-1-yl]-1,6,8-triazatricyclo[7.3.1.0 {2,7}]trideca-2(7),3,5-triene-8-carboxamide hydrochloride]",TRP Activity (EC1.5),"Trp peptide assay, hydrochloride",A (A (EC1.5<1 μM))
same,Emax,[1],> 150%
N#Cc1cc(-c2ccc3c(n2)N(C(=O)Nc2cnccn2)[C@H]2CCN3C2)ccc1F [Example 419],Tryp AVG EC1.5 (μM),[2],A (A (EC1.5<1 μM))
O=C(Nc1cncc(F)c1)N1c2nc(-c3cccc(C(F)(F)F)c3)ccc2N2C[C@@H](O)[C@H]1C2 [Example 630],Tryp AVG EC1.5 (μM),[4],A (A (EC1.5<1 μM))
Cc1nc(NC(=O)N2c3nc(-c4cccc(Cl)c4)ccc3N3CC[C@H]2C3)sc1C [Example 102],Tryp AVG EC1.5 (μM),[5],A (A (EC1.5<1 μM))
O=C(Nc1cccnc1)N1c2nc(-c3cccc(C(F)(F)F)c3)ccc2N2CCC1CC2 [Example 485],Tryp AVG EC1.5 (μM),[2],A (A (EC1.5<1 μM))
Cc1ccc(-c2ccc3c(n2)N(C(=O)Nc2ccccn2)[C@H]2CCCN3C2)cn1 [Example 465],Tryp AVG EC1.5 (μM),[2],B (B (EC1.5 1-25 μM))
"N#Cc1ncc(-c2ccc3c(n2)N(C(=O)Nc2cnccn2)[C@H]2CCN3C2)cc1F [(9S)-5-(6-cyano-5-fluoropyridin-3-yl)-N-(pyrazin-2-yl)-1,6,8-triazatricyclo[7.2.1.0^2,7]dodeca-2(7),3,5-triene-8-carboxamide]",TRP Activity (EC1.5),Trp peptide assay,C (C (EC1.5>25 μM))
same,Emax,[1],< 150%
"O=C(Nc1ccccn1)N1c2nc(N3CCC[C@@H]3C(F)(F)F)ccc2N2CCC[C@H]1C2 [(9S)-N-(pyridin-2-yl)-5-[(2R)-2-(trifluoromethyl)pyrrolidin-1-yl]-1,6,8-triazatricyclo[7.3.1.0 {2,7}]trideca-2(7),3,5-triene-8-carboxamide]",TRP Activity (EC1.5),Trp peptide assay,A (A (EC1.5<1 μM))
same,Emax,[1],> 150%
O=C(Nc1cccc(C2=CCOCC2)n1)N1c2nc(-c3cccc(C(F)(F)F)c3)ccc2N2CC[C@H]1C2 [Example 658],Tryp AVG EC1.5 (μM),[4],A (A (EC1.5<1 μM))
O=C(CCCC[C@@H]1SCC2NC(=O)NC21)NCCCCCC(=O)NCc1ccc(NC(=O)N2c3nc(-c4cccc(C(F)(F)F)c4)ccc3N3CC[C@H]2C3)cc1 (stereo partly shown) [Example 428],Tryp AVG EC1.5 (μM),[2],A (A (EC1.5<1 μM))
COc1cc(-c2cccc(Cl)c2)nc2c1N1CC[C@@H](C1)N2C(=O)Nc1cnccn1 [Example 396],Tryp AVG EC1.5 (μM),[3],A (A (EC1.5<1 μM))
O=C(Nc1cccc(-c2cnco2)c1)N1c2nc(-c3cccc(C(F)(F)F)c3)ccc2N2C[C@@H](O)[C@H]1C2 [Example 665],Tryp AVG EC1.5 (μM),[4],A (A (EC1.5<1 μM))
"Cc1cc(-c2ccc3c(n2)N(C(=O)Nc2ccncn2)[C@H]2CCCN3C2)ccn1 [(9S)-5-(2-methylpyridin-4-yl)-N-(pyrimidin-4-yl)-1,6,8-triazatricyclo[7.3.1.0 {2,7}]trideca-2(7),3,5-triene-8-carboxamide]",TRP Activity (EC1.5),Trp peptide assay,A (A (EC1.5<1 μM))
same,Emax,[1],> 150%
O=C(Nc1cccc(-c2cnco2)c1)N1c2nc(N3CCC[C@H](C(F)(F)F)C3)ccc2N2CC[C@H]1C2 [Example 718],Tryp AVG EC1.5 (μM),[4],A (A (EC1.5<1 μM))
O=C(Nc1nnc(-c2ccccc2)o1)N1c2nc(-c3cccc(C(F)(F)F)c3)ccc2N2CC[C@H]1C2 [Example 719],Tryp AVG EC1.5 (μM),[4],A (A (EC1.5<1 μM))
"O=C(Nc1cnccn1)N1c2nc(N3CCOC(C4CC4)C3)ccc2N2CC[C@H]1C2 (stereo partly drawn) [(9S)-5-(2-cyclopropylmorpholin-4-yl)-N-(pyrazin-2-yl)-1,6,8-triazatricyclo[7.2.1.0 {2,7}]dodeca-2,4,6-triene-8-carboxamide]",TRP Activity (EC1.5),Trp peptide assay,B (B (EC1.5 1-25 μM))
same,Emax,[1],> 150%
"Cc1cc(-c2ccc3c(n2)N(C(=O)Nc2cccc4nnc(C)cc24)[C@H]2CCN3C2)ccn1 [(9S)-N-(3-methylcinnolin-5-yl)-5-(2-methylpyridin-4-yl)-1,6,8-triazatricyclo[7.2.1.0 {2,7}]dodeca-2(7),3,5-triene-8-carboxamide]",TRP Activity (EC1.5),Trp peptide assay,B (B (EC1.5 1-25 μM))
same,Emax,[1],> 150%
O=C(Nc1cnccn1)N1c2nc(-c3cccc(N4CCOCC4)c3)ccc2N2CCC[C@H]1C2 [Example 560],Tryp AVG EC1.5 (μM),[2],B (B (EC1.5 1-25 μM))
Cc1cc(-c2ccc3c(n2)N(C(=O)Nc2cc(-c4cnco4)ccn2)[C@H]2CCN3C2)ccn1 [Example 746],Tryp AVG EC1.5 (μM),[4],A (A (EC1.5<1 μM))
O=C(Nc1nccc(N2CCNCC2)n1)N1c2nc(-c3cccc(C(F)(F)F)c3)ccc2N2CC[C@H]1C2 [Example 745],Tryp AVG EC1.5 (μM),[4],B (B (EC1.5 1-25 μM))
"Cc1ccc(-c2ccc3c(n2)N(C(=O)NCC(C)(C)C)[C@H]2CCN3C2)cn1 [(9S)-N-(2,2-dimethylpropyl)-5-(6-methylpyridin-3-yl)-1,6,8-triazatricyclo[7.2.1.0 {2,7}]dodeca-2(7),3,5-triene-8-carboxamide]",TRP Activity (EC1.5),Trp peptide assay,C (C (EC1.5>25 μM))
same,Emax,[1],< 150%
O=C(Nc1cccnc1)N1c2nc(-c3cccc(N4CCOCC4)c3)ccc2N2CCC[C@H]1C2 [Example 538],Tryp AVG EC1.5 (μM),[2],A (A (EC1.5<1 μM))
CS(=O)(=O)c1cncc(-c2ccc3c(n2)N(C(=O)Nc2ccccn2)[C@H]2CCCN3C2)c1 [Example 375],Tryp AVG EC1.5 (μM),[3],A (A (EC1.5<1 μM))
O=C(Nc1ccnc(Br)c1)N1c2nc(-c3cccc(C(F)(F)F)c3)ccc2N2CC[C@H]1C2 [Example 541],Tryp AVG EC1.5 (μM),[2],A (A (EC1.5<1 μM))
"COC(=O)c1cc(-c2ccc3c(n2)N(C(=O)Nc2cnccn2)[C@H]2CCN3C2)ccn1 [methyl 4-[(9S)-8-[(pyrazin-2-yl)carbamoyl]-1,6,8-triazatricyclo[7.2.1.0 {2,7}]dodeca-2(7),3,5-trien-5-yl]pyridine-2-carboxylate]",TRP Activity (EC1.5),Trp peptide assay,B (B (EC1.5 1-25 μM))
same,Emax,[1],> 150%
O=C(Nc1nnc(-c2ccncc2)s1)N1c2nc(-c3cccc(C(F)(F)F)c3)ccc2N2CC[C@H]1C2 [Example 733],Tryp AVG EC1.5 (μM),[4],A (A (EC1.5<1 μM))
O=C(Nc1cccnc1)N1c2nc(-c3cnn(C4CCCC4)c3)ccc2N2CC[C@H]1C2 [Example 587],Tryp AVG EC1.5 (μM),[2],B (B (EC1.5 1-25 μM))
CC(C)(C)OC(=O)NCC#Cc1cc(NC(=O)N2c3nc(-c4cccc(C(F)(F)F)c4)ccc3N3CC[C@H]2C3)cc(-c2cnco2)c1 [Example 749],Tryp AVG EC1.5 (μM),[4],A (A (EC1.5<1 μM))
"O=C(Nc1cccnc1)N1c2nc(-c3ccc(C(F)(F)F)nc3)ccc2N2CC[C@H]1C2 [(9S)-N-(pyridin-3-yl)-5-[6-(trifluoromethyl)pyridin-3-yl]-1,6,8-triazatricyclo[7.2.1.0^{2,7}]dodeca-2(7),3,5-triene-8-carboxamide]",TRP Activity (EC1.5),Trp peptide assay,B (B (EC1.5 1-25 μM))
same,Emax,[1],> 150%
Cc1cc(C)n(N)c1CC1C=CC(CCC(=O)NCc2cn(-c3cccc(NC(=O)N4c5nc(-c6cccc(C(F)(F)F)c6)ccc5N5CC[C@H]4C5)c3)nn2)=N1 (stereo partly shown) [Example 622],Tryp AVG EC1.5 (μM),[2],C (C (EC1.5>25 μM))
same,Emax,"Trp mass spectrometry assay, percent maximum fold activation of SIRT1, read-out: Tryp % Fold Act",< 150%
"CC[C@@H]1CN(c2ccc3c(n2)N(C(=O)Nc2cnccn2)[C@H]2CCN3C2)CCO1 [(9S)-5-[(2R)-2-ethylmorpholin-4-yl]-N-(pyrazin-2-yl)-1,6,8-triazatricyclo[7.2.1.0^{2,7}]dodeca-2(7),3,5-triene-8-carboxamide]",TRP Activity (EC1.5),Trp peptide assay,B (B (EC1.5 1-25 μM))
same,Emax,[1],> 150%
O=C(Nc1cccc2nccnc12)N1c2nc(-c3cccc(C(F)(F)F)c3)ccc2N2CC[C@H]1C2 [Example 83],Tryp AVG EC1.5 (μM),[5],A (A (EC1.5<1 μM))
